Data: publication PMC11883425, “The synthesis and investigation of novel 3-benzoylbenzofurans and pyrazole derivatives for anti-HIV activity” (RSC Medicinal Chemistry, 2025)
Where two headings read alike, the source gives them in different places.

Legend:
HIV-1 CAP210 pseudovirus = assay: HIV-1 whole virus inhibition assay, CAP210 pseudovirus (luciferase, TZM-bl cells); format: cell-based
Experimental: (§1) The HIV pseudoviruses were produced from the plasmids that were kindly donated by Dr Mthunzi-Kufa (CSIR, South Africa). Competent DH5α cells and STBL2 cells were transformed with envelope (CAP210.2.00.E8 and Q23.17) and backbone plasmid (HIV-1 SG3 ΔEnv) through heat-shock at 42 °C for 90 seconds and cooled in ice for 5 minutes. The transformed cells were grown in Luria Bertani medium containing 100 μg mL^−1 ampicillin and glycerol stocks were prepared. The transformed cells were grown at 37 °C in a 200 rpm shaking incubator overnight and the plasmids were isolated from the cells using a GeneJET plasmid Miniprep Kit (ThermoFisher Scientific Inc). The purity of the isolated plasmids was assessed for purity using Nanodrop. The HEK 293T cells were co-transfected with the backbone (10 μg) and envelope plasmids (5 μg) using the PolyFect Transfection Reagent (QIAGEN N.V) for 8–12 hours and the transfected cells were grown for 48 hours producing pseudoviruses which were collected, and stocks stored at −80 °C.
(§2) The compounds were serial diluted from 100 to1.56 μM in 96 well plates (Separation Scientific SA (Pty) Ltd) and incubated with either CAP210 or Q23 pseudoviruses (200 TCID50) and incubated for 1 hour. The TZM-bl cells (1 × 10^5 cells per mL containing 7.5 μg mL^−1 DEAE-dextran) were added and incubated for 48 hours. The 96 well plates were centrifuged, and the supernatant was removed leaving only 50 μL in each well. The Bright-Glo™ Luciferase substrate (Anatech Instruments (Pty) Ltd) (50 μL) was added to each well and incubated for 2 minutes in the dark and chemiluminescence readings were taken in a Corning® 96-well white polystyrene plate using a SpectraMax® Paradigm® Multi-Mode Microplate Reader.

HIV-1 Q23 pseudovirus = assay: HIV-1 whole virus inhibition assay, Q23 pseudovirus (luciferase, TZM-bl cells); format: cell-based
Experimental: as §1, §2

[1] = Cytotoxicity in TZM-bl cells by MTT assay; format: cell-based; details: human, MTT assay, 48 hours, mean ± SEM
Experimental: (§3) All cell culture reagents and cell growth medium were purchased from Sigma-Aldrich/Merck. The cell lines are TZM-bl cells (HeLa cells derived cell that is genetically engineered to contain CD4 and CCR5/CXCR4 receptor) were obtained from NIH AIDS Reagent Program and HEK 293T (derived from human embryonic kidney cells) were received as donations from the lab of Dr Patience Mthunzi, Biophotonics laboratory, CSIR. […] The cells were cultured in T-75 culture flasks (Lasec SA (Pty) Ltd Johannesburg) in Dulbecco's modified Eagle's medium (DMEM) with 3.7 g L^−1 […], 0.05% (v/v) gentamicin/mL, 1% penicillin/streptomycin and 10% heat-inactivated fetal bovine serum (Celtic Molecular Diagnostics). All incubations for tissue cell culture were conducted in a 37 °C, 5% CO2, and 95% humidity incubator.
(§4) The cytotoxicity of compounds was evaluated in TZM-bl cells since these cells are susceptible to HIV infections and would be used for the evaluation of HIV entry inhibition by 3-benzoylbenzofurans and pyrazole derivatives.[74] MTT dye (3-(4,5-dimethylthiazol-2-yl)-2,5-diphenyltetrazolium bromide), which is reduced by viable cells to produce […] purple formazan, was then measured and correlated with cell viability.[75] TZM-bl cells were cultured to confluency in DMEM containing 10% FBS and harvested by centrifugation at 1200 × g for 5 minutes. The cells were counted at 1 × 10^5 cells per mL per well and were seeded overnight, followed by treatment with serially diluted compounds from 500 to 0.98 μM for 48 hours. The peripheral blood mononuclear cells (PBMCs) were isolated from the blood of HIV-negative volunteers, treated with phytohaemagglutinin-protein (PHA, 4 μg mL^−1) to stimulate the cells for 2 hours. PBMCs were diluted in RPMI-1640 medium, counted and 1 × 10^6 cells per mL were treated with compounds (500 to 0.98 μM) for 48 hours. Cells were harvested by centrifugation at 1200 × g for 5 minutes, and the supernatants were removed. For the PBMCs, MTS dye (3-(4,5-dimethylthiazol-2-yl)-5-(3-carboxymethoxyphenylo)-2-(4-sulfophenyl)-2H-tetrazolium) was used.[76] A 100 μL of tetrazolium dye (5 mg mL^−1 MTT prepared in DMEM or 1 : 9 dilution MTS prepared in RPMI-1640) was added to the wells and incubated for 4 to 24 hours. MTT samples were solubilized with 100 μL solubilization buffer (1 mL HCl: 9 mL isopropanol) for 30 minutes, and the absorbance reading was taken at 550 nm and 690 nm wavelengths. MTS sample readings were taken at 490 nm without a solubilization step using the SpectraMax^R Paradigm^R Multi-Mode Detection Platform plate reader (Molecular Devices, California, USA).

[2] = Cytotoxicity in PBMCs by MTS assay; format: cell-based; details: human, peripheral blood mononuclear cells (PBMCs), PHA-stimulated, HIV-negative PBMCs
Experimental: as §4

CAP210 pseudovirus = assay: Time of drug addition assay, CAP210 pseudovirus in TZM-bl cells; format: cell-based, HIV-1; details: added 0, 2, 4, 6, 8 hours post-infection
Experimental: Fig. 5 Time of addition assay of CAP210 HIV infection treated with active compounds. TZM-bl cells were infected with CAP210 pseudoviruses and treated with compounds at various hours post-infection. NVP, 3g, and 4b were used at 3 μM, while 5f and 5h were used at 25 μM. The bars represent the mean ± SEM obtained from three independent experiments.
TZM-bl cells (1 × 10^5 cells per mL containing 7.5 μg mL^−1 DEAE-dextran) were infected with CAP210 pseudovirus at 400 TCID50 and incubated at 37 °C for 48 hours. The compounds were added to the wells at various time points (0, 2, 4, 6, and 8 hours) post-infection. […] After 48 hours, the cells were centrifuged at 1200 × g for 5 minutes, culture media was removed, leaving 50 μL, and Bright-Glo substrate (50 μL) was added to detect luciferase activity for 2 minutes at 37 °C. Inhibition of HIV pseudoviruses by active compounds was detected by reading for chemiluminescence using a Corning® 96-well white polystyrene using the SpectraMax® Paradigm® Multi-Mode Microplate Reader.

HIV-1 PR = biological target: T1, HIV-1 PR (Human immunodeficiency virus type 1 group M subtype B, UniProt P04585); assay: HIV-1 protease inhibition assay (fluorogenic substrate); format: biochemical; details: for SI (HIV-1 PR): CC50 PBMCs / IC50 HIV-1 PR
T1 construct: 2 μL recombinant HIV-PR (0.2 μg mL^−1) was added only to reaction wells
Experimental: Compounds were serially diluted in protease assay buffer (0.1 M CH3COONa, 1 M NaCl, 1 mM EDTA, 1 mM DTT, and 1 mg mL^−1 BSA; pH 4.7), making a final concentration of 75 to 9.4 μM, and 49 μL of compounds were added to wells. 49 μL protease substrate 1 (10 μM) was added to each well, and 2 μL recombinant HIV-PR (0.2 μg mL^−1) was added only to reaction wells except for reaction blanks, where it was replaced with 2 μL assay buffer. The solutions were mixed and incubated at 37 °C for 1 hour. Endpoint fluorescence readings at an excitation wavelength of 370 nm and an emission wavelength of 520 nm.

TZM-bl cells = assay: Cytotoxicity in TZM-bl cells by MTT assay; format: cell-based; details: pyrazole vs benzofuran precursor
Experimental: as §3, §4

[3] = test system: HIV-1 subtype C pseudoviruses; details: cited from earlier work
[4] = TZM-bl, 48 h, read-out: IC50 (μM) CAP210, CAP210 pseudovirus, TZM-bl cells, 48 hours
[5] = TZM-bl, 48 h, read-out: IC50 (μM) Q23, Q23 pseudovirus, TZM-bl cells, 48 hours
[6] = lowest concentrations tested, Fig. 3

Row | Structure (SMILES) | IC50 (HIV-1 CAP210 pseudovirus; [4]) [µM] | IC50 (HIV-1 Q23 pseudovirus; [5]) [µM] | CC50 at 48 h [1] [µM] | also measured
1 | COc1cc(F)ccc1C(=O)c1coc2ccc(O)cc12 [3f, (4-fluoro-2-methoxyphenyl)(5-hydroxy-1-benzofuran-3-yl)methanone] | 11.2 ± 0.31 | 40.6 ± 7.85 | 41.9 ± 6.33 | 
2 | COc1ccc(C(=O)c2coc3ccc(O)cc23)c(OC)c1OC [3g, (5-Hydroxybenzofuran-3-yl)(2,3,4-trimethoxyphenyl)methanone] |  |  | 79.9 ± 7.25 | CC50 at 48 h [2]: 89.5 ± 11.6 µM; inhibition of HIV infection by time of addition (CAP210 pseudovirus; 3 μM): inhibit HIV infections for up to 8 hours; IC50 (HIV-1 PR): 70.9 ± 12.4 µM; SI (HIV-1 PR) (HIV-1 PR): 1.3
3 | COc1ccc(OC)c(C(=O)c2coc3ccc(O)cc23)c1 [3h, (5-Hydroxybenzofuran-3-yl)(2,5-dimethoxyphenyl)methanone] | 4.45 ± 0.82 | 5.74 ± 1.51 | 50 ± 10.5 | 
4 | COc1ccc(OC)c(C(=O)c2coc3cc(C)c(OC)c(C)c23)c1 [4a, (2,5-Dimethoxyphenyl)(5-methoxy-4,6-dimethyl-1-benzofuran-3-yl)methanone] | 8.12 ± 2.56 | 18.1 ± 1.78 | 59.1 ± 6.56 | 
5 | COc1ccc(OC)c(C(=O)c2coc3c(C)cc(OC)c(C)c23)c1 [4b, (2,5-Dimethoxyphenyl)(5-methoxy-4,7-dimethyl-1-benzofuran-3-yl)methanone] |  |  | 8.42 ± 1.16 | CC50 at 48 h [2]: 41.3 ± 6.78 µM; inhibition of HIV infection by time of addition (CAP210 pseudovirus; 3 μM): inhibit HIV infections for up to 8 hours; IC50 (HIV-1 PR): 57.5 ± 10.1 µM; SI (HIV-1 PR) (HIV-1 PR): 0.7
6 | COc1ccc(OC)c(C(=O)c2coc3c2cc(OC)c2ccccc23)c1 [4c, (2,5-Dimethoxyphenyl)(5-methoxynaphtho[1,2-b]furan-3-yl)methanone] | 2.43 ± 1.28 | 12.6 ± 0.53 | 9.65 ± 2.37 | 
7 | COc1ccc(Br)cc1C(=O)c1coc2c1cc(OC)c1ccccc12 [4d, (5-Bromo-2-methoxyphenyl)(5-methoxynaphtho[1,2-b]furan-3-yl)methanone] | 3.28 ± 1.48 | 22.4 ± 3.47 | 7.77 ± 1.54 | 
8 | COc1cc(F)ccc1C(=O)c1coc2c1cc(OC)c1ccccc12 [4e, (4-Fluoro-2-methoxyphenyl)(5-methoxynaphtho[1,2-b]furan-3-yl)methanone] | 4.27 ± 0.19 | 20.9 ± 2.2 | 35.2 ± 2.32 | 
9 | COc1ccc(OC)c(-c2n[nH]cc2-c2c(O)cc(C)c(OC)c2C)c1 [5a, 2-[3-(2,5-Dimethoxyphenyl)-1H-pyrazol-4-yl]-4-methoxy-3,5-dimethylphenol] | 18.4 ± 3.2 | 13.3 ± 1.12 | 88.9 ± 22.1 | decrease in cytotoxicity versus precursor (TZM-bl cells): 1 fold
10 | COc1ccc(OC)c(-c2n[nH]cc2-c2c(C)c(OC)cc(C)c2O)c1 [5b, 2-[3-(2,5-Dimethoxyphenyl)-1H-pyrazol-4-yl]-4-methoxy-3,6-dimethylphenol] | 7.87 ± 0.91 | 10.1 ± 1.66 | 46.5 ± 6.66 | 
11 | COc1ccc(OC)c(-c2n[nH]cc2-c2cc(OC)c3ccccc3c2O)c1 [5c, 2-[3-(2,5-Dimethoxyphenyl)-1H-pyrazol-4-yl]-4-methoxynaphthalen-1-ol] | 20.5 ± 6.8 | 13 ± 3.75 | 47.7 ± 17.7 | 
12 | COc1ccc(Br)cc1-c1n[nH]cc1-c1cc(OC)c2ccccc2c1O [5d, 2-[3-(5-Bromo-2-methoxyphenyl)-1H-pyrazol-4-yl]-4-methoxynaphthalen-1-ol] | 20.8 ± 1 | 16.2 ± 2.55 | 75 ± 6.4 | 
13 | COc1cc(F)ccc1-c1n[nH]cc1-c1cc(OC)c2ccccc2c1O [5e, 2-[3-(4-Fluoro-2-methoxyphenyl)-1H-pyrazol-4-yl]-4-methoxynaphthalen-1-ol] | 29.09 ± 0.18 | 15.7 ± 8.17 | 103 ± 11.1 | 
14 | COc1cc(F)ccc1-c1n[nH]cc1-c1cc(O)ccc1O [5f, 2-[3-(4-Fluoro-2-methoxyphenyl)-1H-pyrazol-4-yl]benzene-1,4-diol] |  |  | 36.1 ± 7.95 | CC50 at 48 h [2]: 98.2 ± 1.3 µM; inhibition of HIV infection by time of addition (CAP210 pseudovirus; 25 μM): only inhibited HIV infections when added on the onset of infection; anti-HIV activity (CAP210) (HIV-1 CAP210 pseudovirus; [6]): over 90%; IC50 (HIV-1 PR): 31.6 ± 3.83 µM; SI (HIV-1 PR) (HIV-1 PR): 3.1; anti-HIV activity (Q23) (HIV-1 Q23 pseudovirus; [6]): over 90%
15 | COc1ccc(-c2n[nH]cc2-c2cc(O)ccc2O)c(OC)c1OC [5g, 2-[3-(2,3,4-Trimethoxyphenyl)-1H-pyrazol-4-yl]benzene-1,4-diol] | 13.8 ± 1.7 | < 10 | 140 ± 17.1 | IC50 (HIV-1 Q23 pseudovirus; {}): 9.93 ± 0.69 µM
16 | COc1ccc(OC)c(-c2n[nH]cc2-c2cc(O)ccc2O)c1 [5h, 2-[3-(2,5-Dimethoxyphenyl)-1H-pyrazol-4-yl]benzene-1,4-diol] | < 10 | < 10 | 142 ± 13.2 | CC50 at 48 h [2]: 83.2 ± 9.7 µM; inhibition of HIV infection by time of addition (CAP210 pseudovirus; 25 μM): only inhibited HIV infections when added on the onset of infection; IC50 (HIV-1 CAP210 pseudovirus; {}): 6.31 ± 0.31 µM; IC50 (HIV-1 PR): 50.7 ± 0.78 µM; SI (HIV-1 PR) (HIV-1 PR): 1.6; IC50 (HIV-1 Q23 pseudovirus; {}): 8.14 ± 2.63 µM
17 | Cc1cn([C@H]2C[C@H](N=[N+]=[N-])[C@@H](CO)O2)c(=O)[nH]c1=O [zidovudine] |  |  |  | IC50 [3]: 0.05 µM
